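A five-concentration, 48-hour dose response in 96-well plates underlies each endpoint, interpolated linearly between surrounding concentrations. The concentration for full growth arrest is given as TGI.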

Holding throughout (test): NCI tumour cell line growth inhibition, 48 h
In assay [1] the test system is NCI/ADR-RES ovarian.
Assay [2] concerns SF-268 CNS.
Assay [3] has as its system TK-10 renal.
In assay [4] the test system is A498 renal.
Assay [5] deals with RXF 393 renal.
For assay [6], the system named is IGROV1 ovarian.
The test system of assay [7] is RPMI-8226 leukemia.
The test system of assay [8] is HL-60(TB) leukemia.
Assay [9] relates to COLO 205 colon.
In assay [10] the test system is MOLT-4 leukemia.

With `O=C(CC(=O)N1N=C(c2ccccc2)C(N=Nc2ccc(S(=O)(=O)CCOS(=O)(=O)O)cc2)C1=O)Nc1ccc(Cl)cc1` (stereo not given), the TGI in assay [1] was above 100 µM; in assay [2] it was above 100 µM; in [3] it was above 100 µM; in assay [4], above 100 µM; in [5], above 100 µM; in assay [6], 72.3 µM. For the same compound, the TGI in [7], in [8], in assay [9] and in assay [10] was above 100 µM each time.

As to `c1ccc2c(c1)nnn2C1CCCCO1` (stereo not given), the TGI in assay [1], in [2], in [3], in assay [4], in assay [5] and in assay [6] was above 100 µM in each case. Also, the TGI in assay [7], in assay [8], in assay [9] and in assay [10] was above 100 µM each time.

For `CCOC(=O)c1ccc2nc3n(c2c1)C(c1c(F)cccc1F)SC3` (stereo not given), the TGI in assay [1], in assay [2], in assay [3], in assay [4], in assay [5] and in [6] was above 100 µM throughout. Also, the TGI in assay [7], in [8], in [9] and in assay [10] was above 100 µM in each case.

As for `C=CC(=O)N1C/C(=C\c2ccc(OC)cc2)C(=O)/C(=C/c2ccc(OC)cc2)C1`, the TGI in assay [1] is above 31 µM; in assay [2] it was 17.1 µM; in assay [3], above 36.1 µM; in assay [4] it was 3.54 µM; in assay [5] it was 3.23 µM; in assay [6] it was above 21.4 µM. Besides, the TGI was above 100 µM in assay [7], above 100 µM in assay [8], 9.99 µM in assay [9] and above 27.8 µM in assay [10].

As for `C=C(C)C1(Sc2ccc(OC)cc2)CC1`, the TGI in assay [1] was above 100 µM; in [2], 67 µM; in assay [3] it was above 100 µM; in assay [4], above 100 µM; in assay [5], 36.3 µM; in assay [6], 98.4 µM. Besides, the TGI in [7] was above 100 µM; in assay [8], 41.6 µM; in assay [9], 60.1 µM; in assay [10], 40.3 µM.

As to `COCC(C#N)NC1CC(OC2CC(O)(C(=O)CO)Cc3c(O)c4c(c(O)c32)C(=O)c2c(OC)cccc2C4=O)OC(C)C1O` (stereo not given), the TGI in assay [1] is 16 µM; in assay [2] it was 0.691 µM; in assay [3], 2.42 µM; in [4], 0.448 µM; in assay [5], 0.497 µM; in assay [6] it was 0.582 µM. For the same compound, the TGI in assay [7] was 1.15 µM; in assay [8], 0.432 µM; in [9] it was 0.471 µM; in assay [10] it was 0.0471 µM.

On to `CC1CN(c2cc3c(cc2F)c(=O)c(C(=O)O)cn3-c2ccc(N3CCN(C)CC3)cn2)CC(C)N1` (stereo not given), for which the TGI in [1], in assay [2], in assay [3], in assay [4], in assay [5] and in assay [6] was above 100 µM in each case. The TGI in assay [7], in [8], in [9] and in [10] was above 100 µM in each case.

For `CCC[N+](C)(C)CCCNC(=O)c1c(O)c2ccccc2[nH]c1=O`, the TGI in assay [1], in assay [2], in assay [3], in assay [4], in assay [5] and in assay [6] was above 100 µM in each case. Also, the TGI in assay [7], in assay [8], in [9] and in assay [10] was above 100 µM in each case.

`C1=CC2C(C3CN(c4ccccc4)N=C13)C1C3C4C=CC21C=CC43` (stereo not given): the TGI in assay [1], in assay [2], in assay [3], in assay [4], in [5] and in [6] was above 100 µM throughout. Further, the TGI in [7], in assay [8], in assay [9] and in assay [10] was above 100 µM throughout.

As to `COC(=O)NC(Cc1ccccc1)NC(=O)OC(C)(C)C` (stereo not given), the TGI in [1], in assay [2], in assay [3], in assay [4], in assay [5] and in assay [6] was above 100 µM in each case. Further, the TGI in assay [7], in [8], in assay [9] and in [10] was above 100 µM throughout.

In the case of `O=c1oc2ccccc2c(O)c1C(c1ccc(OCc2ccccc2)cc1)c1c(O)c2ccccc2oc1=O`, the TGI in assay [1], in assay [2], in assay [3], in assay [4], in assay [5] and in assay [6] was above 100 µM in each case. The TGI in assay [7] was above 100 µM; in assay [8], 65.9 µM; in assay [9] it was above 100 µM; in assay [10], above 100 µM.

With `C[Si](C)(C)OC1(C#N)c2ccccc2CCCC12CCCC2` (stereo not given), the TGI in assay [1] was above 100 µM; in [2] it was above 100 µM; in assay [3], above 100 µM; in assay [4], above 100 µM; in assay [5], 88.1 µM; in assay [6] it was above 100 µM. The TGI in [7] was 51.5 µM; in assay [8], 39.2 µM; in [9], above 100 µM; in assay [10], 61.7 µM.

On to `CCn1c(CCCc2nc3c([nH]2)c(=O)n(C)c(=O)n3C)nc2c1c(=O)n(C)c(=O)n2C`, for which the TGI in assay [1], in assay [2], in [3], in [4], in [5] and in assay [6] was above 100 µM in each case. Moreover, the TGI was above 100 µM in assay [7], above 100 µM in assay [8], 27 µM in assay [9] and above 100 µM in assay [10].

The record behind these values is PubChem BioAssay (NCI).
